Converted amounts (≈) assume the structure as drawn. Each block holds one compound with its values, some of them ahead of it.
Columns and labels:
[1] = system: A549; assay: Cytotoxicity against human A549 cells; type: functional, cell-based
[2] = system: HCT-8; assay: Cytotoxicity against human HCT8 cells; type: functional, cell-based
[3] = Cytotoxicity against human MDA-MB cells; type: functional, cell-based
[4] = system: P388; assay: Cytotoxicity against mouse P388 cells; type: functional, cell-based
[5] = system: Plasmodium falciparum; assay: Antiplasmodial activity against chloroquine-resistant Plasmodium falciparum W2 after 24 hrs by liquid scintillation counting analysis; type: functional; details: W2, 24 h
[6] = system: Plasmodium falciparum; assay: Antiplasmodial activity against chloroquine-resistant Plasmodium falciparum K1 after 24 hrs by liquid scintillation counting analysis; type: functional; details: K1, 24 h
[7] = system: HeLa; assay: Cytotoxicity against human HeLa cells; type: functional, cell-based
[8] = system: Plasmodium falciparum; assay: Antimalarial activity against Plasmodium falciparum D6; type: functional
[9] = system: Enterococcus faecium; assay: Antibacterial activity against Enterococcus faecium; type: functional
[10] = system: Staphylococcus haemolyticus; assay: Antibacterial activity against Staphylococcus haemolyticus; type: functional
[11] = system: Streptococcus pyogenes; assay: Antibacterial activity against Streptococcus pyogenes; type: functional
[12] = system: Enterococcus faecalis; assay: Antibacterial activity against Enterococcus faecalis; type: functional
[13] = system: Staphylococcus aureus; assay: Antibacterial activity against Staphylococcus aureus; type: functional
[14] = system: Bacillus subtilis; assay: Antibacterial activity against Bacillus subtilis; type: functional
[15] = system: Helicobacter pylori; assay: Antibacterial activity against Helicobacter pylori; type: functional
[16] = Inhibition of HDAC (unknown origin); design: species or system Homo sapiens
[17] = system: Plasmodium falciparum; assay: Antiplasmodial activity against chloroquine-resistant Plasmodium falciparum W2 infected in human erythrocytes after 72 hrs by giemsa staining based microscopic analysis; type: functional, cell-based; details: W2, 72 h
[18] = system: Mycobacterium; assay: Antibacterial activity against Mycobacterium; type: functional
[19] = system: HL-60; assay: Cytotoxicity against human HL60 cells assessed as reduction in cell viability after 72 hrs by MTT assay; type: functional, cell-based; details: HL-60, 72 h
[20] = system: K562; assay: Cytotoxicity against human K562 cells assessed as reduction in cell viability after 72 hrs by MTT assay; type: functional, cell-based; details: K562, 72 h
[21] = system: Human immunodeficiency virus 1; assay: Antiviral activity against HIV-1 assessed as inhibition of virus-induced syncytia formation; type: functional
[22] = target: Protein kinase C alpha type (Homo sapiens) (UniProt P17252); assay: Inhibition of PKCalpha (unknown origin)
[23] = target: Protein kinase C beta type (Homo sapiens) (UniProt P05771); assay: Inhibition of PKCbeta (unknown origin)
Chain of Protein kinase C beta type (Homo sapiens) (P05771 2-671 limits assumed): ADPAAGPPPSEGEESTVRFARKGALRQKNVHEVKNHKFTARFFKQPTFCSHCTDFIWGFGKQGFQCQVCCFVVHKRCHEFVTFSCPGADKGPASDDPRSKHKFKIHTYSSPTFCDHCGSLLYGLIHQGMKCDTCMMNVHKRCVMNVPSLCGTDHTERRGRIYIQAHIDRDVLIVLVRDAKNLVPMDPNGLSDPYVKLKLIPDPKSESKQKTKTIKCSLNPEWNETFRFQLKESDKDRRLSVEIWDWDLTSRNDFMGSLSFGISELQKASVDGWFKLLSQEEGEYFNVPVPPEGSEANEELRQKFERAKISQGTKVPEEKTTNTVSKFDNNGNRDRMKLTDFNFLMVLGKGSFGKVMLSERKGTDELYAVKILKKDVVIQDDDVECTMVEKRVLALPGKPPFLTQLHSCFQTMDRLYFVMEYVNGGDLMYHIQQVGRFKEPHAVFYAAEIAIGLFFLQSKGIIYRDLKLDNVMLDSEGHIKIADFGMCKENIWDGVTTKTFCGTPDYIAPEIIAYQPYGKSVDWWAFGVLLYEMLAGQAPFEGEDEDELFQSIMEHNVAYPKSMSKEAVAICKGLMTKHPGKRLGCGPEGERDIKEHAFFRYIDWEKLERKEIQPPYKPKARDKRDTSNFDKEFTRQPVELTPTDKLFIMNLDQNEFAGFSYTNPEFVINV

[24] = system: Rattus norvegicus; assay: Antiinflammatory activity in rat assessed as inhibition of carrageenan-induced paw edema at 50 mg/kg, po administered 1 hr prior to carrageenan challenge measured 4 hrs post dose; type: functional
[25] = system: Human alphaherpesvirus 2; assay: Antiviral activity against Herpes simplex virus type 2 by plaque reduction assay; type: functional; details: read-out: ID50 (the source's name)
[26] = system: Human alphaherpesvirus 1; assay: Antiviral activity against Herpes simplex virus type 1 by plaque reduction assay; type: functional; details: read-out: ID50 (the source's name)
[27] = Cytotoxicity against human NSCLC-N6 cells; type: functional, cell-based
[28] = system: P388; assay: Cytotoxicity against mouse doxorubicin-resistant P388 cells; type: functional, cell-based
[29] = system: KB; assay: Cytotoxicity against human KB cells; type: functional, cell-based
[30] = system: HT-29; assay: Cytotoxicity against human HT-29 cells; type: functional, cell-based

Compound: CN1C[C@H](c2c[nH]c3c(Br)c(Br)cc(O)c23)NC[C@H]1c1c[nH]c2cc(Br)ccc12
- IC50 [1]: 1 to 10 µg/mL (≈ 1.71 to 17.1 µM)
- IC50 [2]: 1 to 10 µg/mL (≈ 1.71 to 17.1 µM)
- IC50 [3]: 1 to 10 µg/mL (≈ 1.71 to 17.1 µM)
- IC50 [4]: 15 µg/mL (≈ 25.7 µM)

Compound: Cn1c2nc3ccccc3c-2cc2ccccc21 [NEOCRYPTOLEPINE]
- IC50 [5]: 0.027 to 0.063 µg/mL (≈ 0.116 to 0.271 µM)
- IC50 [6]: 0.027 to 0.063 µg/mL (≈ 0.116 to 0.271 µM)

Compound: COC(=O)[C@@]1(C)Nc2c(O)cc3c(c2C1=O)[C@@H](CBr)CN3C(=O)c1cc2cc(OC)c(OC)c(OC)c2[nH]1
- IC50 [7]: 0.001 to 1 nM

Compound: O[C@]12C=C(c3nccc4c3[nH]c3ccccc34)[C@@H]3CCN(CCCC/C=C\CC1)C[C@@]31C[C@@H]3/C=C\CCCCN3[C@H]12 [MANZAMINE A]
- MIC [8]: 4.5 µg/mL (≈ 8.2 µM)

- MIC [9]: 4 to 32 µg/mL (≈ 8.98 to 71.9 µM)
- MIC [11]: 4 to 32 µg/mL (≈ 8.98 to 71.9 µM)
- MIC [12]: 4 to 32 µg/mL (≈ 8.98 to 71.9 µM)
- MIC [13]: 4 to 32 µg/mL (≈ 8.98 to 71.9 µM)
- MIC [14]: 4 to 32 µg/mL (≈ 8.98 to 71.9 µM)
Compound: CN[C@@H](CC(C)C)C(=O)NCCc1c(Br)[nH]c2ccc(Br)cc12 [ALTEMATAMIDE C]
- MIC [10]: 4 to 32 µg/mL (≈ 8.98 to 71.9 µM)

Compound: CNC1=NC(=O)[C@H]([C@H](C)c2c[nH]c3ccccc23)O1 [INDOMYCIN]
- MIC [15]: 0.016 µg/mL (≈ 0.0622 µM)
- MIC [13]: 0.5 µg/mL (≈ 1.94 µM)

Compound: COC(=O)[C@@]1(C)Nc2c(O)cc3c(c2C1=O)C[C@@H](Br)CN3C(=O)c1cc2cc(OC)c(OC)c(OC)c2[nH]1
- IC50 [7]: 0.001 to 1 nM

- MIC [9]: 4 to 32 µg/mL (≈ 7.43 to 59.5 µM)
- MIC [11]: 4 to 32 µg/mL (≈ 7.43 to 59.5 µM)
- MIC [12]: 4 to 32 µg/mL (≈ 7.43 to 59.5 µM)
- MIC [13]: 4 to 32 µg/mL (≈ 7.43 to 59.5 µM)
- MIC [14]: 4 to 32 µg/mL (≈ 7.43 to 59.5 µM)
Compound: CN[C@@H](CC(C)C)C(=O)NCCc1c(Br)n(C)c2cc(Br)c(Br)cc12 [ALTEMATAMIDE A]
- MIC [10]: 4 to 32 µg/mL (≈ 7.43 to 59.5 µM)

- IC50 [16]: 32 nM
Compound: O=C(/C=C/c1ccc(CN(CCO)CCc2c[nH]c3ccccc23)cc1)NO [DACINOSTAT]

- MIC [9]: 4 to 32 µg/mL (≈ 7.63 to 61.1 µM)
- MIC [11]: 4 to 32 µg/mL (≈ 7.63 to 61.1 µM)
- MIC [12]: 4 to 32 µg/mL (≈ 7.63 to 61.1 µM)
- MIC [13]: 4 to 32 µg/mL (≈ 7.63 to 61.1 µM)
- MIC [14]: 4 to 32 µg/mL (≈ 7.63 to 61.1 µM)
Compound: CN[C@@H](CC(C)C)C(=O)NCCc1c(Br)[nH]c2cc(Br)c(Br)cc12 [ALTEMATAMIDE B]
- MIC [10]: 4 to 32 µg/mL (≈ 7.63 to 61.1 µM)

Compound: C=C1c2[nH]c3ccccc3c2C2C(CC)C1CCN2C (stereo not drawn)
- IC50 [17]: < 1 µg/mL

- MIC [8]: 6 µg/mL (≈ 10.6 µM)
Compound: Oc1cccc2c1[nH]c1c(C3=C[C@@]4(O)CC/C=C\CCCCN5CC[C@@H]3[C@@]3(C[C@@H]6/C=C\CCCCN6[C@H]34)C5)nccc12

- MIC [8]: 0.34 µg/mL (≈ 1.02 µM)
Compound: CN1C(=N)N(C)/C(=C/c2c[nH]c3cc(Br)ccc23)C1=O

- MIC [18]: 2 to 32 µg/mL (≈ 8.47 to 135 µM)
- MIC [13]: 8 to 64 µg/mL (≈ 33.9 to 271 µM)
Compound: O=c1ccc2nccc3c4cccc(O)c4n1c23

Compound: COC(=O)[C@@]1(C)NC2=C(C1=O)[C@@]13C[C@H]1CN(C(=O)c1cc4cc(OC)c(OC)c(OC)c4[nH]1)C3=CC2=O
- IC50 [7]: 0.001 to 1 nM

- MIC [8]: 11 µg/mL (≈ 19.5 µM)
Compound: [O-][n+]1ccc2c([nH]c3ccccc32)c1C1=C[C@@]2(O)CC/C=C\CCCCN3CC[C@@H]1[C@]1(C[C@@H]4/C=C\CCCCN4[C@H]12)C3

Compound: C[n+]1c2ccccc2cc2[n-]c3ccccc3c21.Cl [CRYPTOLEPINE HYDROCHLORIDE]
- IC50 [5]: 0.027 to 0.063 µg/mL
- IC50 [6]: 0.027 to 0.063 µg/mL

Compound: CC(C)=CCc1cccc2c1N[C@@H]1N3C(=O)[C@H](Cc4c[nH]c5c(CC=C(C)C)cccc45)NC(=O)[C@@H]3C[C@]21O
- IC50 [19]: 780 nM
- IC50 [20]: 22.4 µM

- EC50 [21]: 0.95 µg/mL (≈ 2.67 µM)
Compound: COc1ccc2c(c1)N=CN1CCc3c([nH]c4ccccc34)C3=NCC[C@@]321

- INH [22]: 2.3 nM
- INH [23]: 6.2 nM
Compound: N#CCCn1c2ccccc2c2c3c(c4c5ccccc5[nH]c4c21)C(=O)NC3

Compound: Cn1c2c3ccccc3nc-2c(O)c2ccccc21 [HYDROXYCRYPTOLEPINE]
- IC50 [5]: 0.027 to 0.063 µg/mL (≈ 0.109 to 0.254 µM)
- IC50 [6]: 0.027 to 0.063 µg/mL (≈ 0.109 to 0.254 µM)

Compound: O=C(O)c1ccc(C(=O)N/N=C/c2c(-c3cccs3)[nH]c3ccccc23)cc1
- inhibition in vivo at 50 mg/kg [24]: 55.3%

Compound: C[n+]1c2ccccc2cc2[n-]c3ccccc3c21 [CRYPTOLEPINE]
- IC50 [5]: 0.027 to 0.063 µg/mL (≈ 0.116 to 0.271 µM)
- IC50 [6]: 0.027 to 0.063 µg/mL (≈ 0.116 to 0.271 µM)

- IC50 [25]: 1500 µg/mL (≈ 6110 µM)
- IC50 [26]: 1500 µg/mL (≈ 6110 µM)
Compound: CC(C)CC(=O)[C@@H](O)Cc1c[nH]c2ccccc12

- MIC [18]: 2 to 32 µg/mL (≈ 9.08 to 145 µM)
- MIC [13]: 8 to 64 µg/mL (≈ 36.3 to 291 µM)
Compound: O=c1ccc2nccc3c4ccccc4n1c23 [CANTHIN-6-ONE]

Compound: NCCc1c(C(CN)c2c[nH]c3cc(Br)ccc23)[nH]c2cc(C(CN)c3c[nH]c4cc(Br)ccc34)c(O)cc12 (stereo not drawn) [GELLIUSINE A]
- IC50 [27]: 10 to 20 µg/mL (≈ 15.4 to 30.7 µM)
- IC50 [28]: 10 to 20 µg/mL (≈ 15.4 to 30.7 µM)
- IC50 [29]: 10 to 20 µg/mL (≈ 15.4 to 30.7 µM)
- IC50 [4]: 10 to 20 µg/mL (≈ 15.4 to 30.7 µM)
- IC50 [30]: 10 to 20 µg/mL (≈ 15.4 to 30.7 µM)
